Test results published in patent publication US11096980B2, “Method of using glycyrrhiza plant-based preparation to reduce toxic effect of polypeptide fungitoxin” (priority 2016, dated 2021).

System: IPEC-J2 cells
Test: TEER cell culture assay: protective effect against polypeptide fungitoxins
Assay type: cell-based, porcine
Conditions: for TEER value after addition of toxin (negative control): toxin 0.2-10 μM added on day 8
Experimental: In order to test the correlations of polypeptide fungitoxins on epithelial tissue under controlled conditions, in vitro studies were performed. Therein, well-characterized test systems based on cell cultures and described in the literature were employed. For feed additives, epithelial cells from the respective organ in question, e.g. in the present case IPEC-J2 cells from the porcine intestine, were preferred. The used epithelial cells from the porcine intestine offer the advantage of being non-transformed cells still having all the important properties of normal intestinal cells and large physiological similarities such as the formation of viable tight junction proteins, which are above all essential for the intestinal barrier, as well as the expression of characteristic enzymes and transport systems (e.g. P-glycoprotein, cytochrome P450 3A4, vit. B 12 transporters etc.).
For the in vitro examinations of a Glycyrrhiza dry extract, the latter was extracted once again, thus producing a secondary Glycyrrhiza extract. The secondary Glycyrrhiza extract was prepared in that 1 g of the Glycyrrhiza dry extract and 9 ml 70% ethanol was each weighed in, mixed, and shaken at 700 rpm for one hour at room temperature. After this, the solution was centrifuged, and the liquid supernatant was sterile filtered using a 0.2 μm filter and further diluted with IPEC-J2 medium. The secondary Glycyrrhiza extract was tested in vitro in the following concentrations: 250 μg, 500 μg and 1,000 μg Glycyrrhiza dry extract per ml medium in the test formulation, in the following also referred to as 250, 500 and 1,000 μg/ml secondary Glycyrrhiza extract.
The TEER technique described by Geens and Niewold (Cytotechnology, 2011, 63, 415 et seq.) was used in an adapted form. In this in vitro model, intestinal porcine epithelial cells (IPEC-J2, DSMZ No.: ACC 701, Passage 1-15) are cultivated in an insert on a permeable polyester membrane (1.12 cm^2 surface area, 0.4 μm pore size, 12 mm membrane diameter) and differentiated in the incubator for a period of 8 days at 39° C. and 5% CO2. Per insert, 1×10^∧5 cells in 0.5 ml medium are applied to the respective membrane. During said differentiation period, the used medium was aspirated every other day and replaced with fresh medium. The insert was fixed in a 12-well cell culture plate, and the cells were supplied with 1.5 ml medium from below (basolateral compartment) and with 0.5 ml medium from above (apical compartment). […]
Differentiated cells form a cell barrier, being strongly interconnected by tight junction proteins. […] The intactness of the cell barrier is measured by means of a volt-ohmmeter: The electrical resistance between the two compartments is referred to as TEER (transepithelial electrical resistance) value and represented in kOhm×cm^2. […]

Compound	TEER value after addition of toxin (negative control)	also measured
CCC(=O)CCCCC[C@@H]1NC(=O)[C@H]2CCCCN2C(=O)[C@H]([C@@H](C)CC)NC(=O)[C@H](Cc2cn(OC)c3ccccc23)NC1=O [apicidin]	lowered	–
CC[C@H](C)[C@H]1C(=O)O[C@H](C(C)C)C(=O)N(C)[C@@H]([C@@H](C)CC)C(=O)O[C@H](C(C)C)C(=O)N(C)[C@@H]([C@@H](C)CC)C(=O)O[C@H](C(C)C)C(=O)N1C [enniatin A]	–	TEER mean value (toxin) (enniatin A 5 μM alone (negative control), after 24 hours): 3.928 kOhm×cm^2
CC1(C)[C@@H](O[C@H]2O[C@H](C(=O)O)[C@@H](O)[C@H](O)[C@H]2O[C@@H]2O[C@H](C(=O)O)[C@@H](O)[C@H](O)[C@H]2O)CC[C@]2(C)[C@H]3C(=O)C=C4[C@@H]5C[C@@](C)(C(=O)O)CC[C@]5(C)CC[C@@]4(C)[C@]3(C)CC[C@@H]12 [glycyrrhizic acid]	–	Effect in the TEER test against enniatins A, A1, B, B1, beauvericin and apicidin relative to the negative controls (70 μg/ml (corresponding to 1.000 μg/ml secondary Glycyrrhiza extract)): no positive effect
enniatins	lowered	–
